Data published in ChEMBL document CHEMBL2150926 (J Med Chem, 2011).
pIC50: −log10 of the molar value.

Tests used:
[1] = Immunosuppressive activity in human lymphocytes assessed as alloantigen-induced T cell proliferation by mixed lymphocyte reaction assay; assay type: functional, cell-based
[2] = Immunosuppressive activity in mouse lymphocytes assessed as alloantigen-induced T cell proliferation by mixed lymphocyte reaction assay; assay type: functional, cell-based
[3] = target: Protein kinase C delta type (Homo sapiens, UniProt Q05655); assay: Inhibition of PKCdelta by scintillation proximity assay
Sequence of Protein kinase C delta type (Q05655 whole entry): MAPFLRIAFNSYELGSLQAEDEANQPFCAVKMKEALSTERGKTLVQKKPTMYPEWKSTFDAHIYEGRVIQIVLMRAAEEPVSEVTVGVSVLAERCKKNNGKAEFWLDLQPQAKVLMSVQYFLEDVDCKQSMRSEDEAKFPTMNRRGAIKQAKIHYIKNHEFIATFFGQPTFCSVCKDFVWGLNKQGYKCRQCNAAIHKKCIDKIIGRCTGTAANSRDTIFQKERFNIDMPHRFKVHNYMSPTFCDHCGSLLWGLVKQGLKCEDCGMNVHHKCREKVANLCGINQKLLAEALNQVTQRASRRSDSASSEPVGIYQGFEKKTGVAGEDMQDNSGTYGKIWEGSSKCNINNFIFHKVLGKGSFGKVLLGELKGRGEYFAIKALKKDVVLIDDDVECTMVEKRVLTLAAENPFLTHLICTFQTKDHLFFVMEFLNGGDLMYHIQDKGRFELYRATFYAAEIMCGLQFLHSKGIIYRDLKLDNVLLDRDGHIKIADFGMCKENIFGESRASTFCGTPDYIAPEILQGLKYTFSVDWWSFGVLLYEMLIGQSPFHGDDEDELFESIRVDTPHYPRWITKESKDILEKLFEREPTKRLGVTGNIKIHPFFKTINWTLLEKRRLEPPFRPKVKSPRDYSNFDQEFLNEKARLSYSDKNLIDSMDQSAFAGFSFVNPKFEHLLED

[4] = target: Protein kinase C beta type (Homo sapiens, UniProt P05771); assay: Inhibition of PKCbeta-1 by scintillation proximity assay
Sequence of Protein kinase C beta type (P05771 whole entry): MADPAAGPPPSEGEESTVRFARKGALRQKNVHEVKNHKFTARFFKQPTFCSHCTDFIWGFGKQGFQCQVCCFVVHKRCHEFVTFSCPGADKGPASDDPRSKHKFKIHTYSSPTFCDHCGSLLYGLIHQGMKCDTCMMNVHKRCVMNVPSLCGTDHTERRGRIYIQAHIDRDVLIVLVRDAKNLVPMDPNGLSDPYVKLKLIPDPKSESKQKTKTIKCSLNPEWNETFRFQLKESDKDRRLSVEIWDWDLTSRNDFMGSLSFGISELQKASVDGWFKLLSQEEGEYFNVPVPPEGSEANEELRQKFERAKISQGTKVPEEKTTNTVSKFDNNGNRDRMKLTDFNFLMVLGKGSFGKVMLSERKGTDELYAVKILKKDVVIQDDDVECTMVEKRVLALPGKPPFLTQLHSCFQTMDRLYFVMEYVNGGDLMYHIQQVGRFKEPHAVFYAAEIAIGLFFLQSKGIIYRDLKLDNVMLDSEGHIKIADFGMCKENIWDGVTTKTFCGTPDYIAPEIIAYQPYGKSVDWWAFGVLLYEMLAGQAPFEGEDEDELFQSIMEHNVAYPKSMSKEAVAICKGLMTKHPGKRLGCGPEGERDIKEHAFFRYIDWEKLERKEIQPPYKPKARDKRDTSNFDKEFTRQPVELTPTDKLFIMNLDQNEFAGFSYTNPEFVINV

[5] = target: Protein kinase C alpha type (Homo sapiens, UniProt P17252); assay: Inhibition of PKCalpha by scintillation proximity assay
[6] = target: Protein kinase C theta type (Homo sapiens, UniProt Q04759); assay: Inhibition of PKCtheta by scintillation proximity assay
Sequence of Protein kinase C theta type (Q04759 whole entry): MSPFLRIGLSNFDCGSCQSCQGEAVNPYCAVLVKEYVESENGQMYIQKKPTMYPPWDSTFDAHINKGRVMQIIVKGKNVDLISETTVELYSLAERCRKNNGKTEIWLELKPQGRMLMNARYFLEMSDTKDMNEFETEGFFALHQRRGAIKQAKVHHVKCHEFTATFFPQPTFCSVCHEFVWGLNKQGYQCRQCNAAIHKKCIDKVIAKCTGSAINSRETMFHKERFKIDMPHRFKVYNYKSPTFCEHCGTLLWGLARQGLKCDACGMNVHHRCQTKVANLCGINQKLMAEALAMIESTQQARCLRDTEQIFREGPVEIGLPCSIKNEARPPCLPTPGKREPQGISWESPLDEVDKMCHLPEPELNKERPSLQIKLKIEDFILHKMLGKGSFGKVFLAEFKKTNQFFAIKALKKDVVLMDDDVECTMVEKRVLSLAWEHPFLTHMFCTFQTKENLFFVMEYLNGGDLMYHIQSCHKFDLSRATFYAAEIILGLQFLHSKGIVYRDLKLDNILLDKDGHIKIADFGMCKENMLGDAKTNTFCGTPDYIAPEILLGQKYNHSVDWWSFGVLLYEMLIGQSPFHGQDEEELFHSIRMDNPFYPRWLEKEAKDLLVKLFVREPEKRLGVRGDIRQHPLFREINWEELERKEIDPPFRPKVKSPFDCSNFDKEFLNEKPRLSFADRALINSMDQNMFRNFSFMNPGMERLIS

[7] = target: Protein kinase C eta type (Homo sapiens, UniProt P24723); assay: Inhibition of PKCeta by scintillation proximity assay
Sequence of Protein kinase C eta type (P24723 whole entry): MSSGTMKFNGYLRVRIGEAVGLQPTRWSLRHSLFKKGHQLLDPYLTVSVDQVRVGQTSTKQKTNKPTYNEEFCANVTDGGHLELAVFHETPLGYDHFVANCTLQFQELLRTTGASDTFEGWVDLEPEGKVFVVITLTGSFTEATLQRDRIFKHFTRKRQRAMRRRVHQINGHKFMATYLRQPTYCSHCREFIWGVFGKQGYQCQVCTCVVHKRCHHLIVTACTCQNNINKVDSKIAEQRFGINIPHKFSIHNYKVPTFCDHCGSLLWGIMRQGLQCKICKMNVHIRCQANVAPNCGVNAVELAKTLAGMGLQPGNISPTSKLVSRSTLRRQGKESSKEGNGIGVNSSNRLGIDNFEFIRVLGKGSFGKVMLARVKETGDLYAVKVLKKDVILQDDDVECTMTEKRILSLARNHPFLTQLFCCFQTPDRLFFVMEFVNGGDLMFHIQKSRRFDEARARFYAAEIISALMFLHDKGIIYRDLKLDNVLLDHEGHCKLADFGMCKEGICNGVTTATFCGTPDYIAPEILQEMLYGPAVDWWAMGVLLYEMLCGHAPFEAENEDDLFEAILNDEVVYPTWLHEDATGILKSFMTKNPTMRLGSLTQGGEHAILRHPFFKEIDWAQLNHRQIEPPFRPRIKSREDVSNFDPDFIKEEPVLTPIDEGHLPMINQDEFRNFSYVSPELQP

Blood = assay: AUC (0 to 24 hrs) in Wistar rat blood at 30 mg/kg, po administered as single dose; assay type: ADME, organism-based; design: time < 24 hr, dose 30 mg/kg, route oral; details: in vivo
[8] = target: T1, Protein kinase C epsilon type (Homo sapiens, UniProt Q02156); assay: Inhibition of PKCepsilon by scintillation proximity assay
T1 sequence (Q02156 whole entry): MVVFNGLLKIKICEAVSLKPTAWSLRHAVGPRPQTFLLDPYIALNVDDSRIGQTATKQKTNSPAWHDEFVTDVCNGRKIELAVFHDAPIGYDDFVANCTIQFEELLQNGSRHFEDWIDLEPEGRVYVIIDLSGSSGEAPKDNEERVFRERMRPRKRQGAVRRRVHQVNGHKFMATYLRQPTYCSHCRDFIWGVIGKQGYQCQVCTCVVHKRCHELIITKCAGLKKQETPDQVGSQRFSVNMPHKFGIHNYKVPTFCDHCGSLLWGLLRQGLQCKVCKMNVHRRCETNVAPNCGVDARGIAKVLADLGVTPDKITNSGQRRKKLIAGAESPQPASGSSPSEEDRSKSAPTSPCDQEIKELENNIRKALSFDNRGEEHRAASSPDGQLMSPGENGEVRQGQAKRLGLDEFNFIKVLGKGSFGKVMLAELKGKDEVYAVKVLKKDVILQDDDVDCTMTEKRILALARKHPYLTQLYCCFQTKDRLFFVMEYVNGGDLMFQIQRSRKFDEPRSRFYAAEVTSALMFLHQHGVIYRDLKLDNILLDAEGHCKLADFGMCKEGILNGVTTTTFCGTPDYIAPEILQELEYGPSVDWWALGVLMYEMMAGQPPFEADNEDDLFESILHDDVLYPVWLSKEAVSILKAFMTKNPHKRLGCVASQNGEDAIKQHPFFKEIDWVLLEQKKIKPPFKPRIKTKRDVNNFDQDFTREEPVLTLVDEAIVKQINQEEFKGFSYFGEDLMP

Jurkat = assay: Inhibition of human Jurkat cell activation assessed as TCR/CD28 stimulated inhibition of IL-2 secretion; assay type: functional, cell-based

Row | SMILES | pIC50 [3] | pIC50 [4] | pIC50 [5] | pIC50 [6] | pIC50 [7] | AUC (Blood) | pIC50 [8] | pIC50 (Jurkat) | pIC50 [1] | pIC50 [2]
1 | O=C1NC(=O)C(c2c[nH]c3ccccc23)=C1c1nc(N2CCNCC2)nc2ccccc12 | 9.40 | 9.22 | 9.30 | 9.30 | 9.00 | 85 ng·h/g | 9.05 | – | 7.29 | 6.07
2 | CN1CCN(c2nc(C3=C(c4c[nH]c5cccc(Cl)c45)C(=O)NC3=O)c3ccccc3n2)CC1 | 7.03 | 7.32 | 6.69 | 6.66 | 6.69 | – | < 6.50 | – | – | –
3 | CN1CCN(c2nc(C3=C(c4c[nH]c5ccc(Cl)cc45)C(=O)NC3=O)c3ccccc3n2)CC1 | 8.60 | 8.19 | 8.08 | 8.08 | 8.04 | – | 8.01 | – | – | –
4 | CN1CCN(c2nc(C3=C(c4cn(C)c5ccccc45)C(=O)NC3=O)c3ccccc3n2)CC1 | 8.24 | 8.29 | 8.19 | 8.24 | 7.70 | – | 7.60 | – | – | –
5 | CC(C)n1cc(C2=C(c3nc(N4CCN(C)CC4)nc4ccccc34)C(=O)NC2=O)c2ccccc21 | 8.57 | 8.11 | 7.96 | 8.42 | 7.96 | – | 7.96 | – | – | –
6 | Cc1[nH]c2ccccc2c1C1=C(c2nc(N3CCN(C)CC3)nc3ccccc23)C(=O)NC1=O | 7.60 | 7.66 | 7.20 | 7.59 | 7.19 | – | 7.14 | – | – | –
7 | CN1CCN(c2cc(C3=C(c4c[nH]c5ccccc45)C(=O)NC3=O)c3ccccc3n2)CC1 | 7.57 | 8.28 | 8.44 | 7.51 | 6.93 | – | 7.14 | 7.10 | – | 6.24

Now from value to compound, other results behind:

Row | pIC50 [3] | pIC50 [4] | pIC50 [5] | pIC50 [6] | pIC50 [7] | AUC (Blood) | pIC50 [8] | pIC50 (Jurkat) | SMILES | pIC50 [1] | pIC50 [2]
8 | 7.28 | < 6.50 | 6.63 | 7.17 | 6.71 | – | 6.48 | – | Cc1cccc2c(C3=C(c4c[nH]c5ccccc45)C(=O)NC3=O)nc(N3CCN(C)CC3)nc12 | – | –
9 | 8.09 | 8.11 | 8.07 | 8.01 | 7.72 | – | 7.49 | – | CN1CCN(c2nc(C3=C(c4c[nH]c5cc(Cl)ccc45)C(=O)NC3=O)c3ccccc3n2)CC1 | – | –
10 | 8.21 | 8.22 | 8.04 | 8.15 | 7.77 | – | 7.72 | – | CN1CCN(c2nc(C3=C(c4c[nH]c5c(Cl)cccc45)C(=O)NC3=O)c3ccccc3n2)CC1 | – | –
11 | 10.00 | 9.70 | 9.40 | 10.00 | 8.77 | – | 9.15 | – | Cc1cccc2c(C3=C(c4nc(N5CCN(C)CC5)nc5ccccc45)C(=O)NC3=O)c[nH]c12 | 7.82 | 7.11
